Laboratory results from patent publication US20250034170A1, “SMALL MOLECULE MODULATORS OF GLUCOCEREBROSIDASE ACTIVITY AND USES THEREOF” (Vanqua Bio, Inc., priority 2021, published 2025).

These compounds were tested against T1, GCase (Homo sapiens, UniProt P04062) (assay: activation of GCase in a live cell PFB assay in HELA cells). Conditions: EC50 given as range classes.
T1 construct: endogenous in cells; host or cells: HeLa cells
T1 sequence (P04062 40-536): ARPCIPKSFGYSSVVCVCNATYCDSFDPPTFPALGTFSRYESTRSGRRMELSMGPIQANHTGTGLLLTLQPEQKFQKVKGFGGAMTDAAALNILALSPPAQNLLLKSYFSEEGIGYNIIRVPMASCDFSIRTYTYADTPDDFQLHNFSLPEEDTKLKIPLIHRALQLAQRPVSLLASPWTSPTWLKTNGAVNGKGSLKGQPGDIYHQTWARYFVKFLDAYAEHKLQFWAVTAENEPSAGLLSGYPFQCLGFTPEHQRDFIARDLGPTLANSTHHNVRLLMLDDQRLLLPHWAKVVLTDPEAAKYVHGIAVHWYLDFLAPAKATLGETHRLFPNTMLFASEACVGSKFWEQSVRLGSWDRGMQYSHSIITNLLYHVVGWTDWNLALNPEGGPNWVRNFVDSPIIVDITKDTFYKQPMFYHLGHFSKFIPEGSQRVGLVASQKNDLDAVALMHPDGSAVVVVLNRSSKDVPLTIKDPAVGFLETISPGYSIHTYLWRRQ
Type: cell-based
Experimental: Exemplary compounds were evaluated for activation of GCase in a live cell PFB assay in HELA cells (essentially as described in Ysselstein et al., “LRRK2 kinase activity regulates lysosomal glucocerebrosidase in neurons derived from Parkinson's disease patients” Nature Communications (2019) 10:5570). […] EC50 ranges: A: <10 μM; B: >10-50 μM; C: >50-100 μM; D: >100 μM.

| Compound | EC50 [µM] |
| --- | --- |
| FC(F)Cn1ncc2ncc(N3CCCC4(CCN(c5cccc(C(F)(F)F)n5)CC4)C3)nc21 [Cmpd 219] | 10 to 50 |
| Cc1nn(C2COC2)c2nc(N3CCC4(CN(c5ccnc(C(F)(F)F)c5)C4)C3)n(C)c(=O)c12 [Cmpd 995] | < 10 |
| FC(F)(F)c1ccnc(N2CCC3(CCN(c4cncc(-c5nncs5)n4)CC3)C2)c1 [Compound 180, 8-[6-(1,3,4-thiadiazol-2-yl)pyrazin-2-yl]-2-[4-(trifluoromethyl)pyridin-2-yl]-2,8-diazaspiro[4.5]decane] | 10 to 50 |
| Cc1ccc(S(=O)(=O)N2CC3(CCN(c4cnc5cnn(CC(F)F)c5n4)C3)C2)cc1 [Cmpd 385] | 10 to 50 |
| O=C(c1cccc(C(F)(F)F)c1)N1CC2(CCN(c3cnc4cnn(CC(F)F)c4n3)C2)C1 [Cmpd 382] | 10 to 50 |
| Cc1nn(CC(F)F)c2nc(N3CCC4(CC3)CC(=O)N(c3ccnc(C(F)(F)F)c3)C4)n(C)c(=O)c12 [Cmpd 1020] | < 10 |
| FC(F)Cn1ncc2ncc(N3CCC4(CN(c5ccc(Cl)cn5)C4)C3)nc21 [Cmpd 403] | 10 to 50 |
| FC(F)Cn1ncc2ncc(N3CCC4(CC3)CC(Nc3ccc(C(F)(F)F)cn3)C4)nc21 [Cmpd 227] | 10 to 50 |
| Cc1cc(Cl)cnc1N1CC2(CCN(c3cnc4cnn(CC(F)F)c4n3)C2)C1 [Cmpd 408] | 10 to 50 |
| FC(F)Cn1ncc2ncc(NC3CCC4(C3)CN(c3ccc(C(F)(F)F)nc3)C4)nc21 (stereo not shown) [Compound 189, N-[1-(2,2-difluoroethyl)-1H-pyrazolo[3,4-b]pyrazin-6-yl]-2-[6-(trifluoromethyl)pyridin-3-yl]-2-azaspiro[3.4]octan-6-amine] | < 10 |
| FC(F)(F)CCn1ncc2ncc(N3CCC4(CN(c5ccnc(C(F)(F)F)c5)C4)C3)nc21 [Cmpd 1033] | < 10 |
| Cc1nc(N2CCC3(CCN(c4ncc5c(C)nn(CC(F)(F)F)c5n4)CC3)C2)cc(C(F)(F)F)n1 [Cmpd 619] | 10 to 50 |

Same assay, conditions: activation of GCase, EC50 ranges

| Compound | EC50 [µM] |
| --- | --- |
| CCn1c(=O)n(CC(F)F)c2ncc(N3CCC4(CN(c5cc(C(F)(F)F)nc(C)n5)C4)C3)nc21 [Cmpd 1075] | 10 to 50 |
| Fc1cnc(C(F)(F)F)cc1N1CCC2(CCN(c3cnc4cnn(CC(F)F)c4n3)CC2)C1 [Cmpd 741] | < 10 |
| CCC1N(c2cc(C(F)(F)F)ccn2)C(=O)CC12CCN(c1cnc3cnn(CC(F)F)c3n1)CC2 (stereo not shown) [Cmpd 663] | 10 to 50 |
| O=C1N(Cc2nc(C(F)(F)F)cs2)CCC12CCN(c1cnc3cnn(CC(F)F)c3n1)CC2 [Cmpd 365] | 10 to 50 |
| CCn1c(-c2cncc(F)c2)nc2nc(N3CCC4(CN(c5ccnc(C(F)(F)F)c5)C4)C3)cnc21 [Cmpd 1045] | 50 to 100 |
| Cc1nc(N2CCC3(CC(=O)N(c4cnc5cnn(CC(F)F)c5n4)C3)C2)cc(C(F)(F)F)n1 (stereo not shown) [Cmpd 509] | 10 to 50 |
| COc1nn(CC(F)F)c2nc(N3CCC4(CN(c5ccnc(C(F)(F)F)c5)C4)C3)ncc12 [Cmpd 938] | 10 to 50 |
| COc1nn(CC(F)F)c2nc(N3CCC4(CC3)CCN(c3cnc(C(F)(F)F)nc3C)C4)cnc12 [Cmpd 1094] | < 10 |
| FC(F)Cn1ncc2ncc(N3CCC4(CCN(c5ccc(C(F)(F)F)cn5)C4)CC3)nc21 [Compound 144, 8-[1-(2,2-difluoroethyl)-1H-pyrazolo[3,4-b]pyrazin-6-yl]-2-[5-(trifluoromethyl)pyridin-2-yl]-2,8-diazaspiro[4.5]decane] | < 10 |
| CCn1c(N2CCC3(CCN(c4cc(C(F)(F)F)nc(C)n4)C3)CC2)nc2c(cnn2CC(F)F)c1=O [Cmpd 1102] | < 10 |
| O=C1CC2(CCN(c3cnc4cnn(CC(F)F)c4n3)CC2)CN1Cc1ccc(C(F)(F)F)cn1 [Cmpd 309] | 10 to 50 |
| FC(F)(F)c1cc(N2CC3(CCN(c4cnc5cnn([C@@H]6CCOC6)c5n4)C3)C2)ccn1 [Cmpd 1091] | > 100 |
| O=C1CC2(CN1c1ccnc(C(F)(F)F)c1)C1CC2CN(c2cnc3cnn(CC(F)F)c3n2)C1 (stereo not shown) [Cmpd 721] | > 100 |
| O=C1CC2(CC3CCC(C2)N3c2cnc3cnn(CC(F)F)c3n2)CN1c1cc(C(F)(F)F)ccn1 (stereo not shown) [Cmpd 723] | 10 to 50 |
| Cc1nc(N2CC[C@]3(CCN(c4cnc5c(C)nn(C6COC6)c5n4)C3)C2)cc(C(F)(F)F)n1 [Cmpd 1122] | 10 to 50 |
| CCc1csc(CN2CCC3(CCN(c4cnc5cnn(CC(F)F)c5n4)CC3)C2=O)n1 [Cmpd 364] | < 10 |
| CCN1C(=O)N(c2ccc(C(F)(F)F)cc2)C(=O)C12CCN(c1cnc3c(C)nn(CC(F)F)c3n1)CC2 [Cmpd 872] | < 10 |
| O=C1CC2(CCN(c3cnc4cnn(CC(F)F)c4n3)CC2)CN1c1ccc(C(F)(F)F)nc1 [Cmpd 680] | 10 to 50 |
| FC(F)Cn1ncc2ncc(N3CCC4(CC3)CCN(c3nccnc3C(F)(F)F)C4)nc21 [Cmpd 735] | 10 to 50 |
| Cc1nc(N2CC3(CCN(c4nccc(-c5nncs5)n4)C3)C2)cc(C(F)(F)F)n1 [Cmpd 1131] | > 100 |
| FC(F)Cn1ncc2ncc(N3CCC4(CCN(c5cnc(OCC(F)(F)F)nc5)C4)CC3)nc21 [Cmpd 739] | < 10 |
| FC(F)Cn1ncc2ncc(N3CCCC4(CN(c5cncc(C(F)(F)F)c5)C4)C3)nc21 [Compound 15, 6-[1-(2,2-difluoroethyl)-1H-pyrazolo[3,4-b]pyrazin-6-yl]-2-[5-(trifluoromethyl)pyridin-3-yl]-2,6-diazaspiro[3.5]nonane] | 10 to 50 |
| O=C(c1ccc(C(F)(F)F)nc1)N1CC2(CCN(c3cnc4cnn(CC(F)F)c4n3)C2)C1 [Cmpd 322] | 10 to 50 |

| Compound | EC50 [µM] |
| --- | --- |
| O=C(Cc1csc(-c2ccccc2)n1)N1CC2(CCCN(c3ccccc3)C2)C1 [Compound 58, 2-(2-phenyl-1,3-thiazol-4-yl)-1-{6-phenyl-2,6-diazaspiro[3.5]nonan-2-yl}ethan-1-one] | 10 to 50 |
| O=C(c1cccc(OC(F)F)c1)N1CC2(CCN(c3cnc4cnn(CC(F)F)c4n3)C2)C1 [Cmpd 435] | < 10 |
| O=C1N(c2ccc(C(F)(F)F)nc2)C(=O)C2(CCN(c3cnc4cnn(CC(F)F)c4n3)CC2)N1CC(F)F [Cmpd 876] | 10 to 50 |
| CCOc1nn(C2COC2)c2nc(N3CCC4(CC3)CC(=O)N(c3ccc(C(F)(F)F)nc3)C4)ncc12 [Cmpd 953] | 10 to 50 |
| FC(F)(F)c1ccc(N2CCC3(CCN(c4cncc(-c5nncs5)n4)CC3)C2)nc1 [Cmpd 234] | 10 to 50 |
| Cc1nn(CC(F)F)c2nc(N3CCC4(CC3)CCN(c3cc(C(F)(F)F)ccn3)C4=O)ncc12 [Cmpd 301] | 10 to 50 |
| O=C1N(c2nccc(C(F)(F)F)n2)CCC12CCN(c1ncc3cnn(CC(F)F)c3n1)CC2 [Cmpd 289] | 10 to 50 |
| FC(F)(F)c1ccc(N2CCC3(CCN(c4cncc(-n5cncn5)n4)CC3)C2)cn1 [Cmpd 253] | < 10 |
| FC(F)Cn1ncc2ncc(N3CCCC4(CN(c5ccnc(C(F)(F)F)c5)C4)C3)nc21 [Compound 12, 6-[1-(2,2-difluoroethyl)-1H-pyrazolo[3,4-b]pyrazin-6-yl]-2-[2-(trifluoromethyl)pyridin-4-yl]-2,6-diazaspiro[3.5]nonane] | 10 to 50 |
| CCn1c(N2CCC3(CN(c4cc(C(F)(F)F)nc(C)n4)C3)C2)nc2c(cnn2CC(F)F)c1=O [Cmpd 1103] | < 10 |
| Cc1nn(C2COC2)c2nc(N3CC4(CCN(c5ccnc(C(F)(F)F)c5)C4=O)C3)cnc12 [Cmpd 347] | 10 to 50 |
| O=C1N(c2ccc(C(F)(F)F)nc2)C(=O)C2(CCN(c3ncc4cnn(CC(F)F)c4n3)CC2)N1CC(F)F [Cmpd 875] | < 10 |
| Cc1nn(C2COC2)c2nc(N3CCC4(CCN(c5cnc(C(F)(F)F)nc5)C4)C3)cnc12 (stereo not shown) [Cmpd 534] | < 10 |
| FC(F)c1ccnc(N2CCC3(CC2)CCN(c2cncc(-c4nncs4)n2)C3)c1 [Compound 164, 8-[4-(difluoromethyl)pyridin-2-yl]-2-[6-(1,3,4-thiadiazol-2-yl)pyrazin-2-yl]-2,8-diazaspiro[4.5]decane] | 10 to 50 |
| O=C1N(c2nccc(C(F)(F)F)n2)CCC12CCN(c1cnc3cnn(CC(F)F)c3n1)CC2 [Cmpd 773] | < 10 |
| Cc1nn(CC(F)F)c2nc(N3CC4(CCN(c5ccnc(C(F)(F)F)c5)C4)C3)cnc12 [Cmpd 353] | < 10 |
| O=C1CC2(CCN(c3ccc(C(F)(F)F)nc3)C2)CN1c1cnc2cnn(CC(F)F)c2n1 (stereo not shown) [Cmpd 507] | < 10 |
| CCn1c(N2CCC3(CCN(c4ccnc(C(F)(F)F)c4)C3)C2)nc2c(cnn2CC(F)F)c1=O (stereo not shown) [Cmpd 1100] | 10 to 50 |
| CCn1c(N2CCC3(CN(c4cc(C(F)(F)F)nc(C)n4)C3)C2)nc2c(cnn2C2COC2)c1=O [Cmpd 1115] | 10 to 50 |
| O=C1N(Cc2ccc(C(F)(F)F)nc2)CCC12CCN(c1cnc3cnn(CC(F)F)c3n1)CC2 [Cmpd 308] | 10 to 50 |
| FC(F)Cn1ncc2ncc(N3CC4(CCCN(c5ccc(C(F)F)nc5)C4)C3)nc21 [Compound 157, 2-[1-(2,2-difluoroethyl)-1H-pyrazolo[3,4-b]pyrazin-6-yl]-6-[6-(difluoromethyl)pyridin-3-yl]-2,6-diazaspiro[3.5]nonane] | > 100 |
| FC(F)(F)c1ccc(N2CCC3(CCN(c4cncc(N5CCCC5)n4)CC3)C2)cn1 [Cmpd 248] | < 10 |
| FC(F)Cn1ncc2ncc(N3CCC4(CC3)CCN(c3ccncc3C(F)(F)F)C4)nc21 [Compound 156, 8-[1-(2,2-difluoroethyl)-1H-pyrazolo[3,4-b]pyrazin-6-yl]-2-[3-(trifluoromethyl)pyridin-4-yl]-2,8-diazaspiro[4.5]decane] | < 10 |
